Results taken from patent publication US7179823B1, “5-membered n-heterocyclic compounds with hypoglycemic and hypolipidemic activity” (Takeda Pharmaceutical Company Limited, priority 1999, dated 2007).
Like-named read-outs stand apart in the source and are kept apart here. One block for each molecule: values may come before it.

Key:
PPARγ-RXRα heterodimer = target: T1, PPARγ-RXRα heterodimer (Homo sapiens, UniProt P37231); experiment: PPARγ-RXRα heterodimer ligand activity (luciferase reporter, PPARγ:RXRα:4ERPP/CHO-K1 cells); format: cell-based; details: 48 hours, concentration for 50% of the maximum fold induction
T1 construct: expressed in transfected cells; host or cells: CHO-K1
T1 sequence (P37231 1-477 isoform P37231-2): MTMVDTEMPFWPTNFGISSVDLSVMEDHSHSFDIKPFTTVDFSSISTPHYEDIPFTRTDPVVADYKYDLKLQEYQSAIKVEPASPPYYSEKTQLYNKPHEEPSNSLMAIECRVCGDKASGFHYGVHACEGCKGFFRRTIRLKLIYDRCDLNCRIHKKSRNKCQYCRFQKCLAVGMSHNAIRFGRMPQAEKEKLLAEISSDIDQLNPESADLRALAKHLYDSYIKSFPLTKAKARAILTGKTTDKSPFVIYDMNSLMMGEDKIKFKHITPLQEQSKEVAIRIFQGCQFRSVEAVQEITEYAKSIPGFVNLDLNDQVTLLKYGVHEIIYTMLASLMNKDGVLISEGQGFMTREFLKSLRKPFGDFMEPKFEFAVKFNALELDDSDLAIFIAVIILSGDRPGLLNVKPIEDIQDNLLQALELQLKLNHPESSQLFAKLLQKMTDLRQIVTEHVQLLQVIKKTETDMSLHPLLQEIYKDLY
T1 sequence (P19793 1-462 partner): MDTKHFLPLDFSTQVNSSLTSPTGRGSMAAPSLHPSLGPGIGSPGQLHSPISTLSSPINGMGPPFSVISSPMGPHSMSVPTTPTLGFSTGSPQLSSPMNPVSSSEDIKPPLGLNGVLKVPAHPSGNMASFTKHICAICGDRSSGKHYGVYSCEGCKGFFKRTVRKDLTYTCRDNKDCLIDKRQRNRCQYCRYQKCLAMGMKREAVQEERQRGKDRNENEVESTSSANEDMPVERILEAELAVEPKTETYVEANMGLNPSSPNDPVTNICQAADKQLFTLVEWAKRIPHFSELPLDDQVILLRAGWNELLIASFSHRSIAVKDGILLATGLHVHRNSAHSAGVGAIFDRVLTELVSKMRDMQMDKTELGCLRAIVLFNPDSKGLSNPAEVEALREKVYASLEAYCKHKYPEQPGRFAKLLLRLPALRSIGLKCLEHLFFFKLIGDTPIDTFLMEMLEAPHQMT
Description: (PPARγ-RXRα Heterodimer Ligand Activity)
A PPARγ:RXRα:4ERPP/CHO-K1 cells obtained in Reference Example 5 described later were cultured in HAM F12 medium (produced by NISSUI SEIYAKU) containing 10% Fetal bovine serum (produced by Life Technologies, Inc., USA) and then inoculated to a 96-well white plate (produced by Corning Costar Corporation, USA) at the density of 2×10^4 cells/well, and cultured in a CO2 gas incubator at 37° C. overnight.
After washing the 96 well white plate with PBS (Phosphate-buffered saline), 90 μl of HAM F12 medium containing 0.1% fatty acid-free bovine serum albumin (BSA) and 10 μl of test compound were added, which was cultured in a CO2 gas incubator at 37° C. for 48 hours. After removing the medium, 40 μl of PIKKAGENE 7.5 (produced by Wako Pure Chemical Industries, Ltd.) was added. After stirring, the luciferase activity was determined using Lumistar (produced by BMG Labtechnologies GmbH, Germany).
A fold induction was calculated based on the luciferase activity of each test compound by taking the luciferase activity in the non-treatment group as 1. The values of the test compound concentration and the fold induction were analyzed using PRISM 2.01 (produced by GraphPad Software Inc. USA) to calculate the EC50 values, the effective concentration of a test compound for 50% of the maximum fold induction.
(Introduction of Human PPARγ- and RXRα-Expressing Plasmid and Reporter Plasmid into CHO-K1 Cell and Establishment of Expressed Cell)
After a CHO-K1 cell cultured in a 750 ml tissue culture flask (produced by Corning Costar Corporation, USA) containing HAM F12 medium (produced by NISSUI SEIYAKU) supplemented with 10% Fetal Bovine Serum (produced by Life Technologies, Inc., USA) was scraped by treating with 0.5 g/L trypsin-0.2 g/L EDTA (ethylenediaminetetraacetic acid) (produced by Life Technologies, Inc., USA), the cell was washed with PBS (phosphate-buffered saline) (produced by Life Technologies, Inc., USA), centrifuged (1000 rpm, 5 minutes), and then suspended in PBS. Subsequently, a DNA was introduced into the cell under the condition shown below using GENE PULSER (produced by Bio-Rad Laboratories, USA).
Namely, to a cuvette having a 0.4 cm gap, added were 8×10^6 cells and 10 μg of plasmid pVgRXR2-hPPAR γ obtained in Reference Example 3 and 10 μg of reporter plasmid pGL3-4ERPP-TK neo obtained in Reference Example 4, which was subjected to electroporation at the voltage of 0.25 kV under the capacitance of 960 μF. Subsequently, the cell was transferred into a HAM F12 medium containing 10% Fetal Bovine Serum and cultured for 24 hours and then the cell was scraped again and centrifuged, and then suspended in HAM F12 medium containing 10% Fetal Bovine Serum supplemented with 500 μg/ml of GENETICIN (produced by Life Technologies, Inc., USA) and 250 μg/ml of ZEOCIN (produced by Invitrogen, USA) and diluted to the density of 10^4 cells/ml upon inoculation to a 96-well plate (produced by Corning Costar Corporation, USA), which was cultured in a CO2 gas incubator at 37° C., whereby obtaining a GENETICIN- and ZEOCIN-resistant transformant.
Subsequently, after the transformant cell line thus obtained was cultured in a 24-well plate (produced by Corning Costar Corporation, USA), selected was a cell line in which the luciferase was expressed and induced, i.e., PPARγ:RXRα:4ERPP/CHO-K1 cell by addition of 10 μM pioglitazone hydrochloride.

KKA^y mice = experiment: Hypoglycemic and hypolipidemic actions in mice; format: in vivo; details: Mus musculus, po, 96 h, four days; for inhibition in vivo at 0.005 %: 0.005% in powdery diet; for inhibition in vivo at 0.001 %: 0.001% in powdery diet
Excerpt: Hypoglycemic and Hypolipidemic Actions in Mice
Test compounds were mixed in a powdery diet (CE-2, Japan Clea) at the concentration of 0.01% (compounds of Examples 12, 30, 89, 186), 0.005% (compounds of Examples 7, 80, 82, 181, 182, 184, 256, 262, 283), 0.001% (compounds of Examples 9, 104, 110, 155, 156, 160, 167, 169, 172, 174, 176, 189), or 0.0003% (compounds of Examples 38, 40, 44), and freely given to KKA^y mice (9 to 12 weeks old, 5 mice in a group), a model of obese and type 2 diabetes mellitus, for four days. During this period, water was given freely. Blood was sampled from orbital venous plexus, and glucose and triglyceride levels in plasma separated from blood were determined enzymatically using L type Wako Glu2 (Wako Pure Chemical Industries, Ltd.) or L type Wako TG•H (Wako Pure Chemical Industries, Ltd.), respectively.
In the Table, the value of each treatment group is represented as percent reduction compared with the non-treatment group.

[1] = percent reduction of plasma glucose compared with the non-treatment group, read-out: Hypoglycemic action (%)
[2] = percent reduction of plasma triglyceride compared with the non-treatment group, read-out: Hypolipidemic action (%)

SMILES: Cc1oc(-c2cccs2)nc1COc1ccc(Cn2cc(CCC(=O)O)c(-c3ccccc3)n2)cc1 [Example 82, 3-[1-[4-[5-methyl-2-(2-thienyl)-4-oxazolylmethoxy]benzyl]-3-phenyl-1H-pyrazol-4-yl]propionic acid]
EC50 (PPARγ-RXRα heterodimer): 1.4 nM | inhibition in vivo at 0.005 % (KKA^y mice; [1]): 50% | inhibition in vivo at 0.005 % (KKA^y mice; [2]): 58% | melting point: 159 to 160 °C

SMILES: Cc1oc(-c2ccco2)nc1COc1ccc(Cn2cc(CCC(=O)O)c(-c3ccccc3)n2)cc1 [Example 80, 3-[1-[4-[2-(2-furyl)-5-methyl-4-oxazolylmethoxy]benzyl]-3-phenyl-1H-pyrazol-4-yl]propionic acid]
EC50 (PPARγ-RXRα heterodimer): 2.5 nM | inhibition in vivo at 0.005 % (KKA^y mice; [1]): 42% | inhibition in vivo at 0.005 % (KKA^y mice; [2]): 22% | melting point: 152 to 153 °C

SMILES: Cc1oc(-c2ccccc2)nc1COc1ccc(Cn2cc(CCC(=O)O)c(-c3ccc(F)cc3)n2)cc1 [Example 100, 3-[3-(4-fluorophenyl)-1-[4-(5-methyl-2-phenyl-4-oxazolylmethoxy)benzyl]-1H-pyrazol-4-yl]propionic acid]
EC50 (PPARγ-RXRα heterodimer): 1.8 nM | melting point: 139 to 140 °C

SMILES: Cc1oc(-c2ccco2)nc1COc1ccc(Cn2cc(CCC(=O)O)c(-c3ccccc3)c2)cc1 [Example 8, 3-[1-[4-[2-(2-furyl)-5-methyl-4-oxazolylmethoxy]benzyl]-4-phenyl-3-pyrrolyl]propionic acid]
EC50 (PPARγ-RXRα heterodimer): 2.7 nM | melting point: 86 to 87 °C

SMILES: Cc1oc(-c2ccccc2)nc1COc1ccc(Cn2cc(CCC(=O)O)c(-c3ccccc3)c2)cc1 [Example 7, 3-[1-[4-(5-methyl-2-phenyl-4-oxazolylmethoxy)benzyl]-4-phenyl-3-pyrrolyl]propionic acid]
EC50 (PPARγ-RXRα heterodimer): 3.8 nM | inhibition in vivo at 0.005 % (KKA^y mice; [1]): 54% | inhibition in vivo at 0.005 % (KKA^y mice; [2]): 60% | melting point: 124 to 125 °C

Second part, led by results:

EC50 (PPARγ-RXRα heterodimer): 2 nM
SMILES: CCOC(=O)CCc1cn(Cc2ccc(OCc3nc(-c4ccco4)oc3C)cc2)nc1-c1ccc(F)cc1 [Example 104, ethyl 3-[3-(4-fluorophenyl)-1-[4-[2-(2-furyl)-5-methyl-4-oxazolylmethoxy]benzyl]-1H-pyrazol-4-yl]propionate]
inhibition in vivo at 0.001 % (KKA^y mice; [1]): 43% | inhibition in vivo at 0.001 % (KKA^y mice; [2]): 42%

EC50 (PPARγ-RXRα heterodimer): 3.5 nM | melting point: 153 to 154 °C
SMILES: CCCc1nn(Cc2ccc(OCc3nc(-c4ccccc4)oc3C)cc2)cc1CCC(=O)O [Example 110, 3-[1-[4-(5-methyl-2-phenyl-4-oxazolylmethoxy)benzyl]-3-propyl-1H-pyrazol-4-yl]propionic acid]
inhibition in vivo at 0.001 % (KKA^y mice; [1]): 50% | inhibition in vivo at 0.001 % (KKA^y mice; [2]): 70%

EC50 (PPARγ-RXRα heterodimer): 53 nM | melting point: 126 to 127 °C
SMILES: CCOc1nn(Cc2ccc(OCc3cn(-c4ccccn4)nc3C)cc2)cc1CCC(=O)O [Example 256, 3-[3-ethoxy-1-[4-(3-methyl-1-(2-pyridyl)-1H-pyrazol-4-ylmethoxy]benzyl]-1H-pyrazol-4-yl]propionic acid]
inhibition in vivo at 0.005 % (KKA^y mice; [1]): 57% | inhibition in vivo at 0.005 % (KKA^y mice; [2]): 16%
